According to patent US20060166867A1, “Novel conjugates of polysaccharides and uses thereof” (priority 2003, published 2006):
Several values for one entry are separate records, joined by “and”; a condition that tells them apart may be missing. Equal entries are not always repeated. Where two headings read alike, the source gives them in different places.

Assays:
[1] = tested on: Streptococcus bovis ATCC 9809; assay: MIC, broth microdilution; type: cell-based; settings: Gram positive reference strain
Procedure: Minimal Inhibition Concentration (MIC) measurements: The Minimal Inhibitory Concentration (MIC) was generally determined by the Broth Microdilution method (based on the protocol described in Clinical and Laboratory Standard Institute (CLSI) NCCLS (2003) M7-A6), as follows:
A stock solution of each of the tested compounds was prepared by diluting the compound to a 2,560 μg/ml concentration with an appropriate solvent. The stock solution was then serially 2-fold diluted in 96-well microdilution trays using Cation-Adjusted Mueller-Hinton Broth (CAMHB) until reaching the desired range of concentrations, whereas each well contained double the final working concentration. Each row further had one growth control well (medium+inoculum only), and one sterility control well (medium+tested compound). Plates were stored at −70° C. until used.
The tested microorganisms were used as fresh overnight cultures on blood agar (for gram-positive organisms) or MacConkey agar (for gram-negatives). A standardized inoculum suspension was prepared by the direct colony suspension method, using sterile saline (equivalent to a 0.5 McFarland standard).
Thus, 50 μl of the inoculum suspension were added to each tested well (except for the sterility control well), and […] was performed during 18-24 hours (depending on the tested microorganism or compound) at 35° C.

[2] = tested on: Pseudomonas aeruginosa ATCC 27853; settings: Gram negative reference strain
HIV-1 IIIB = assay: microbe, parasite or virus in culture; type: cell-based
Summary of the method: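 cMAGI β-galactosidase reporter cells or MT2 cells infected at 0.2-0.5 MOI with wild-type or resistant HIV-1 and incubated 4 days at 37 °C with varying compound concentrations. Infection scored by counting X-gal-stained blue cMAGI cells; MT2 syncytium formation assessed microscopically, cytotoxicity by trypan blue exclusion.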

[3] = tested on: Enterococcus faecalis ATCC 29212; settings: Gram positive reference strain
[4] = tested on: Proteus mirabilis ATCC 7002; settings: Gram negative reference strain
[5] = tested on: Enterococcus faecalis (clinical isolate); settings: Gram positive clinical isolate
[6] = tested on: P. aeruginosa-gentamicin^s, meropenem^s; settings: Gram negative clinical isolate
[7] = tested on: HIV-1 Protease resistant virus; type: cell-based; settings: Table 4; read-out: EC50 Protease^Res
Procedure: (§1) Inhibition of HIV-1 cell replication was tested using the cMAGI assay, which is based on the ability of HIV-1 TAT to transactivate the expression of an integrated β-galactosidase reporter gene driven by the HIV-LTR (B. Chackeria et al., J. Virol., (1997) 71, 3932; Collins et al., Nat. Med. (2000) 6, 475). The β-galactosidase reporter is modified to remain localized in the nucleus where it can be detected with the X-gal (5-bromo-4-chloro-3indoyl-β-D-galactopyranoside) substrate as an intense nuclear stain within a few days of infection.
(§2) HIV-1 isolates were propagated by subculture in MT2 cells (Litovchick et al. (2001) supra). Aliquots of cell-free culture supernatants were used as viral inoculum. PAACs were dissolved in the RPMI 1640 medium. Cytotoxicity determinations were carried out in MT2 cells by trypan blue exclusion assay. Viral inhibition was determined by incubating MT2 or cMAGI HIV-1 reporter cells with 0.2-0.5 multiplicity of infection of HIV-1 wild type or resistant virus for 4 days at 37° C. in the presence or absence of various concentrations of pAACs. HIV-1 infection of cMAGI cells was determined by counting the number of HIV-1-infected cells (stained blue). The cytopathic effects of the viral infection of MT2 cells were also analyzed by microscopic assessment of syncytium formation.

[8] = tested on: HIV-1 clinical isolate Clade A; type: cell-based
Procedure: as §1, §2

[9] = tested on: HIV-1 AZT resistant virus; type: cell-based; settings: Table 4; read-out: EC50 AZT^Res
Procedure: as §1, §2

HIV-1 Ba-L = type: cell-based; settings: Table 4
Procedure: as §1, §2

[10] = tested on: HIV-1 clinical isolate Clade C; type: cell-based
Procedure: as §1, §2

[11] = tested on: HIV-1 NeoR6 resistant virus; type: cell-based; settings: read-out: EC50 NeoR6^Res; Table 4
Procedure: as §1, §2

[12] = tested on: A. baumannii-amikacin^s, meropenem^s; settings: Gram negative clinical isolate
S. epidermidis MSSE = settings: Gram positive clinical isolate
[13] = tested on: K. pneumoniae-ESBL negative; settings: Gram negative clinical isolate
[14] = tested on: Staphylococcus aureus ATCC 24213; settings: Gram positive reference strain
[15] = tested on: A. baumannii-amikacin^r, meropenem^r; settings: Gram negative clinical isolate
S. aureus MSSA = settings: Gram positive clinical isolate
E. coli U23773^r = settings: Gram negative clinical isolate
Serratia marcescens = settings: Gram negative clinical isolate
E. Coli-ESBL positive = settings: Gram negative clinical isolate
E. Coli-ESBL negative = settings: Gram negative clinical isolate
[16] = tested on: Escherichia coli ATCC 25922; settings: Gram negative reference strain
[17] = tested on: K. pneumoniae-ESBL positive; settings: Gram negative clinical isolate
[18] = tested on: Enterococcus faecium (clinical isolate); assay: MIC, broth microdilution; type: cell-based; settings: Gram positive clinical isolate; for MIC: read-out: Minimum Inhibitory Concentration

Compound | Minimum Inhibitory Concentration [1] [mg/L] | Minimum Inhibitory Concentration [2] | EC50 (HIV-1 IIIB; Table 4, read-out: EC50 IIIB) [µM] | Minimum Inhibitory Concentration [3] | Minimum Inhibitory Concentration [4] | Minimum Inhibitory Concentration [5] | Minimum Inhibitory Concentration [6] | EC50 [7] [µM] | EC50 [9] [µM] | EC50 (HIV-1 Ba-L) [µM] | EC50 [11] [µM] | Minimum Inhibitory Concentration [12] | Minimum Inhibitory Concentration (S. epidermidis MSSE) | Minimum Inhibitory Concentration [13] | Minimum Inhibitory Concentration [14] | Minimum Inhibitory Concentration [15] | Minimum Inhibitory Concentration (S. aureus MSSA) | Minimum Inhibitory Concentration (E. coli U23773^r) | Minimum Inhibitory Concentration (Serratia marcescens) | Minimum Inhibitory Concentration (E. Coli-ESBL positive) | other results
CC(=O)N[C@H](CCCNC(=N)N)C(=O)N[C@H](CCCNC(=N)N)C(=O)N[C@H](CCCNC(=N)N)C(=O)N[C@H](CCCNC(=N)N)C(=O)N[C@H](CCCNC(=N)N)C(=O)N[C@H](CCCNC(=N)N)C(=O)N[C@H](CCCNC(=N)N)C(=O)N[C@H](CCCNC(=N)N)C(=O)N[C@H](CCCNC(=N)N)C(=O)O [Compound 12, D-Arg-9-mer-NHAc] | 128.0 | > 256.0 mg/liter and 127.64 μM | 1.5 ± 0.6 | 64.0 mg/liter and 31.91 μM | > 256.0 mg/liter and 127.64 μM | 128.0 mg/liter and 63.82 μM | > 256.0 mg/liter and 127.64 μM | 1.4 ± 0.6 | 9.7 ± 5.9 | > 50 | 2 ± 1.2 | 256.0 mg/liter and 127.64 μM | 8.0 mg/liter and 3.99 μM | 256.0 mg/liter and 127.64 μM | 128.0 mg/liter and 63.82 μM | > 256.0 mg/liter and 127.64 μM | > 128.0 mg/liter and 63.82 μM | 64.0 mg/L | > 256.0 mg/liter and 127.64 μM | 64.0 mg/liter and 31.91 μM | EC50 ([8]; clinical isolate Clade A): 2.2 ± 0.3 µM; EC50 ([10]; clinical isolate Clade C): 1.6 ± 0.4 µM; Minimum Inhibitory Concentration (E. Coli-ESBL negative): 128.0 mg/liter and 63.82 μM; Minimum Inhibitory Concentration [16]: 128.0 mg/liter and 63.82 μM; Minimum Inhibitory Concentration [17]: 48.0 mg/liter and 23.93 μM
D-Arg-9-mer-neomycin [Compound 14] | 24.0 | > 256.0 mg/liter and 88.22 μM | 1.3 ± 0.4 | 128.0 mg/liter and 44.11 μM | 64.0 mg/liter and 22.05 μM | 64.0 mg/liter and 22.05 μM | > 256.0 mg/liter and 88.22 μM | 1.5 ± 0.4 | 6.6 ± 5.9 | > 50 | 2 ± 0.5 | 128.0 mg/liter and 44.11 μM | 0.52 µM | 64.0 mg/liter and 22.05 μM | 32.0 mg/liter and 11.02 μM | > 256.0 mg/liter and 88.22 μM | 16.0 mg/liter and 5.51 μM | 32.0 mg/L | 64.0 mg/liter and 22.05 μM | 24.0 mg/liter and 8.27 μM | EC50 ([8]; Table 4, read-out: EC50 Clade A): 2.1 ± 0.4 µM; EC50 ([10]; Table 4, read-out: EC50 Clade C): 1.2 ± 0.5 µM; Minimum Inhibitory Concentration [18]: 24.0 mg/L; MIC [18]: 8.27 µM; Minimum Inhibitory Concentration (E. Coli-ESBL negative): 16.0 mg/liter and 5.51 μM; Minimum Inhibitory Concentration [16]: 32.0 mg/liter and 11.02 μM; Minimum Inhibitory Concentration [17]: 32.0 mg/liter and 11.02 μM
NCC1OC(OC2C(CO)OC(OC3C(O)C(N)CC(N)C3OC3OC(CN)C(O)C(O)C3N)C2O)C(N)C(O)C1O (centres unmarked) [Neomycin] | – | – | – | – | – | – | – | – | – | – | – | – | – | – | – | 105.61 µM | – | 140.81 µM | – | – | EC50 (HIV-1 IIIB; Human immunodeficiency virus 1, MT2, Table 3, against HIV-1 IIIB virus, read-out: EC50): > 200 µM; MIC ([18]; Enterococcus faecium): 256 µg/mL and 282 µM
